# Data reported in PubChem BioAssay AID2060627 (Molecular Pharmacology Branch, DTP, NCI, 2025).
# pIC50: −log10 of the molar value.
# System: 156681-154-R-J1-PDC complex spheroid viability
# Test: Anticancer human tumor 156681-154-R-J1-PDC patient-derived melanoma cell line growth inhibition [CLK]
# Conditions: for pIC50: curve of first compound; for viability, T/C: stronger effect = lower value
# Method in brief: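 Patient-derived tumor cells grown as complex spheroids with HUVEC endothelial cells and mesenchymal stem cells, treated with drug combinations. Concentrations descend in half-log steps from near clinical Cmax, or from 10 microM if Cmax unknown.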
# [1] = second compound 0.0316 µM, first compound 0.0316 µM
# [2] = second compound 0.0316 µM, first compound 0.1 µM
# [3] = second compound 0.0316 µM, first compound 0.316 µM
# [4] = second compound 0.0316 µM, first compound 1 µM
# [5] = second compound 0.0316 µM, first compound 3.16 µM
# [6] = second compound 0.0316 µM, first compound 10 µM
# [7] = second compound 0.1 µM, first compound 0.0316 µM
# [8] = second compound 0.1 µM, first compound 0.1 µM
# [9] = second compound 0.1 µM, first compound 0.316 µM
# [10] = second compound 0.1 µM, first compound 1 µM
# [11] = second compound 0.1 µM, first compound 3.16 µM
# [12] = second compound 0.1 µM, first compound 10 µM
# [13] = second compound 0.316 µM, first compound 0.0316 µM
# [14] = second compound 0.316 µM, first compound 0.1 µM
# [15] = second compound 0.316 µM, first compound 0.316 µM
# [16] = second compound 0.316 µM, first compound 1 µM
# [17] = second compound 0.316 µM, first compound 3.16 µM
# [18] = second compound 0.316 µM, first compound 10 µM
# [19] = second compound 1 µM, first compound 0.0316 µM
# [20] = second compound 1 µM, first compound 0.1 µM
# [21] = second compound 1 µM, first compound 0.316 µM
# [22] = second compound 1 µM, first compound 1 µM
# [23] = second compound 1 µM, first compound 3.16 µM
# [24] = second compound 1 µM, first compound 10 µM
# [25] = second compound 3.16 µM, first compound 0.0316 µM
# [26] = second compound 3.16 µM, first compound 0.1 µM
# [27] = second compound 3.16 µM, first compound 0.316 µM
# [28] = second compound 3.16 µM, first compound 1 µM
# [29] = second compound 3.16 µM, first compound 3.16 µM
# [30] = second compound 3.16 µM, first compound 10 µM
# [31] = second compound 10 µM, first compound 0.0316 µM
# [32] = second compound 10 µM, first compound 0.1 µM
# [33] = second compound 10 µM, first compound 0.316 µM
# [34] = second compound 10 µM, first compound 1 µM
# [35] = second compound 10 µM, first compound 3.16 µM
# [36] = second compound 10 µM, first compound 10 µM
# 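Further: spheroids exposed to the agents for seven days.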
# 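Wherever viability, T/C is given: 100% = DMSO vehicle control viability.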
smiles,measurement,setting,value
COc1ccc([C@@H](O)c2cc(-c3ncnc4cc(N5CCOCC5)ccc34)c(F)cc2Cl)nn1 + CN1CCN(c2cc(C(=O)Nc3cc4cc(-c5cnn(C)c5)ccc4cn3)ccn2)CC1,pIC50,second compound 0.0316 µM,5.62
same,pIC50,second compound 0.1 µM,5.84
same,pIC50,second compound 0.316 µM,> 7.50
same,pIC50,second compound 1 µM,> 7.50
same,pIC50,second compound 3.16 µM,> 7.50
same,pIC50,second compound 10 µM,> 7.50
same,"viability, T/C",[1],109%
same,"viability, T/C",[2],88.3%
same,"viability, T/C",[3],91.3%
same,"viability, T/C",[4],63.6%
same,"viability, T/C",[5],45.3%
same,"viability, T/C",[6],19.2%
same,"viability, T/C",[7],97.5%
same,"viability, T/C",[8],84%
same,"viability, T/C",[9],73.5%
same,"viability, T/C",[10],58.2%
same,"viability, T/C",[11],35%
same,"viability, T/C",[12],16.8%
same,"viability, T/C",[13],15.7%
same,"viability, T/C",[14],16.9%
same,"viability, T/C",[15],14.8%
same,"viability, T/C",[16],13%
same,"viability, T/C",[17],8.38%
same,"viability, T/C",[18],2.77%
same,"viability, T/C",[19],0.13%
same,"viability, T/C",[20],2%
same,"viability, T/C",[21],1.91%
same,"viability, T/C",[22],0.33%
same,"viability, T/C",[23],1.72%
same,"viability, T/C",[24],2.7%
same,"viability, T/C",[25],0.06%
same,"viability, T/C",[26],1.44%
same,"viability, T/C",[27],0.99%
same,"viability, T/C",[28],0.08%
same,"viability, T/C",[29],3.19%
same,"viability, T/C",[30],0.56%
same,"viability, T/C",[31],0.06%
same,"viability, T/C",[32],2.47%
same,"viability, T/C",[33],1.95%
same,"viability, T/C",[34],0.88%
same,"viability, T/C",[35],2.45%
same,"viability, T/C",[36],0.51%
COc1cccc2c1C(=O)c1c(O)c3c(c(O)c1C2=O)CC(O)(C(=O)CO)CC3OC1CC(N)C(O)C(C)O1 (centres undefined) + CN1CCN(c2cc(C(=O)Nc3cc4cc(-c5cnn(C)c5)ccc4cn3)ccn2)CC1,pIC50,second compound 0.0316 µM,> 7.50
same,pIC50,second compound 0.1 µM,> 7.50
same,pIC50,second compound 0.316 µM,> 7.50
same,pIC50,second compound 1 µM,> 7.50
same,pIC50,second compound 3.16 µM,> 7.50
same,pIC50,second compound 10 µM,> 7.50
same,"viability, T/C",[1],43.4%
same,"viability, T/C",[2],48.3%
same,"viability, T/C",[3],4.36%
same,"viability, T/C",[4],0.18%
same,"viability, T/C",[5],0.09%
same,"viability, T/C",[6],3.75%
same,"viability, T/C",[7],30.6%
same,"viability, T/C",[8],22.5%
same,"viability, T/C",[9],3.39%
same,"viability, T/C",[10],0.14%
same,"viability, T/C",[11],0.09%
same,"viability, T/C",[12],0.26%
same,"viability, T/C",[13],11.2%
same,"viability, T/C",[14],5.67%
same,"viability, T/C",[15],0.29%
same,"viability, T/C",[16],0.1%
same,"viability, T/C",[17],0.2%
same,"viability, T/C",[18],1.51%
same,"viability, T/C",[19],0.37%
same,"viability, T/C",[20],0.13%
same,"viability, T/C",[21],0.57%
same,"viability, T/C",[22],2.6%
same,"viability, T/C",[23],0.76%
same,"viability, T/C",[24],0.18%
same,"viability, T/C",[25],0.05%
same,"viability, T/C",[26],0.07%
same,"viability, T/C",[27],0.08%
same,"viability, T/C",[28],1.69%
same,"viability, T/C",[29],1.88%
same,"viability, T/C",[30],0.27%
same,"viability, T/C",[31],0.05%
same,"viability, T/C",[32],1.66%
same,"viability, T/C",[33],2.85%
same,"viability, T/C",[34],0.12%
same,"viability, T/C",[35],1.59%
same,"viability, T/C",[36],0.51%
